# Measurements from patent US12629364B2, “Methods of treating cancers overexpressing CARM1 with EZH2 inhibitors and platinum-based antineoplastic drugs” (The Wistar Institute of Anatomy and Biology, priority 2016, dated 2026).
# Experiments:
# [1] = molecular target: T1, EZH2 (Homo sapiens, UniProt Q15910); experiment: H3K27Me3 / EZH2 immunoblot in A1847 cells; format: cell-based; details: 72 hours, read-out: inhibition of the enzymatic activity of EZH2 as indicated by decrease in H3K27Me3 levels
# T1 construct: endogenous in cells; host or cells: A1847 human epithelial ovarian cancer cells
# Experimental: FIG. 32 illustrates that the EZH2 inhibitor GSK 126 decreases H3K27Me3 levels in a dose-dependent manner. A1847 cells were treated with the indicated concentrations of GSK126 for 72 hours and examined for expression of the indicated proteins by immunoblot. Expression of histone H3 and β-actin was used as a loading control.
# Small molecules used in the epigenetic screen were obtained from Structural Genomics Consortium or The Wistar Institute Molecular Screening Facility. GSK126 was obtained from Active Biochem or Xcess Biosciences. Antibodies were obtained from: mouse anti-CARM1 (Cell Signaling, Cat. No: 12495, 1:1000 for immunoblotting), goat anti-BAF155 (Santa Cruz, Cat. No: SC9746, 1:1000 for immunoblotting), rabbit anti-methylated R1064 BAF155 (Millipore, Cat. No: ABE1339, 1:1000 for immunoblotting), rabbit anti-EZH2 (Cell Signaling, Cat. No: 5246, 1:1000 for immunoblotting), rabbit anti-cleaved PARP p85 (Promega, Cat. No: G7341, 1:1000 for immunoblotting), mouse anti-Ki67 (Cell Signaling, Cat. No: 9449, 1:500 for IHC), rabbit anti-cleaved caspase 3 (Cell Signaling, Cat. No: 9661, 1:1000 for immunoblotting and 1:50 for IHC), rabbit anti-H3K27Me3 (Cell Signaling, Cat. No: 9733, 1:1000 for immunoblotting and 1:100 for IHC), mouse anti-β-actin (Sigma, Cat. No: A1978, 1:20,000 for immunoblotting), rabbit anti-RNA pol II (Santa Cruz, Cat. No: sc-899). […]
# [2] = tested on: tumors formed by CARM1 knockout cells; experiment: IHC and qRT-PCR of dissected CARM1 knockout tumors; format: in vivo, NSG mice
# Experimental: FIGS. 82 to 84 illustrate immunohistochemical analysis for serial sections of tumors dissected from mice injected with CARM1 knockout A1847 cells. Serial sections of tumors dissected from the indicated treatment groups described in FIGS. 73 to 75 were subjected to immunohistochemical staining for H3K27Me3, E7H2, cleaved caspase 3, and Ki67 (FIG. 82). Scale bar=50 μm. Histological score (H-score) of the indicated proteins was calculated for 3 separate fields from 5 tumors from 5 individual mice from each of the indicated groups (FIG. 83). Expression of the indicated EZH2/BAF155 target genes was determined by qRT-PCR in the tumors dissected from the indicated treatment groups (FIG. 84).
# [3] = tested on: CARM1-expressing cell lines (A1847, OVCAR10, and PEO4); experiment: Colony formation assay / GSK126 response curves, CARM1-expressing ovarian cancer cell lines; format: cell-based, Human
# Excerpt: FIG. 5 illustrates the results of a colony formation assay with a panel of normal and ovarian cancer cell lines in the presence of GSK126.
# FIG. 7 illustrates GSK 126 response curves in a panel of normal and ovarian cancer cell lines. Error bars indicate standard error (S.E.) for n=3. *, p≤0.05.
# FIG. 8 illustrates IC50 results for the panel of normal and ovarian cancer cell lines.
# FIG. 33 illustrates relative growth of the indicated HOSE, FTE, and EOC cancer cell lines with high or low CARM1 expression treated with 10 μM GSK126 or vehicle in a colony formation assay as determined by NIH Image J quantification.
# 500 to 5,000 cell were plated into a 24 well tissue culture plate and treated with the indicated compounds. Medium was changed every three days with appropriate drug doses for 12 days or until control wells became confluent. Colonies were washed twice with PBS and fixed with 10% methanol and 10% acetic acid in distilled water. Fixed colonies were stained with 0.005% crystal violet. Integrated density was measured using NIH ImageJ software.
# [4] = tested on: promoter regions of the human DAB2, DLC1, NOXA and TIMP3 genes; experiment: ChIP-qPCR at target gene promoters; format: cell-based; details: A1847 cells
# Excerpt: FIGS. 58 to 61 illustrate the results of a ChIP analysis using anti-EZH2 (FIG. 58), anti-H3K27Me3 (FIG. 59), anti-BAF155 (FIG. 60), or anti-RNA Pol II (FIG. 61) antibodies. An isotype matched IgG was used as a negative control. ChIP products were subjected to qPCR analysis using primers specific for the promoter regions of the human DAB2, DLC1, and NOXA genes. Data is representative of three independent experiments. *p<0.001 compared with IgG controls and #p<0.001 compared with parental controls.
# FIGS. 62 to 65 illustrate the results of a ChIP analysis in parental control and CARM1 knockout A1847 cells treated with 10 μM GSK 126 or vehicle controls. The cells were subjected to ChIP analysis using anti-EZH2 (FIG. 62), anti-H3K27Me3 (FIG. 63), anti-BAF155 (FIG. 64), or anti-RNA Pol II (FIG. 65) antibodies. An isotype-matched IgG was used as a negative control. ChIP products were subjected to qPCR analysis using primers specific for the promoter regions of the human TIMP3 genes. Mean of three independent experiments with SEM. *p<0.001 compared with controls.
# ChIP was performed as described in Tu et al. Developmental Cell (2011) 21:1077-91. The following antibodies were used to perform ChIP: anti-H3K27Me3 (Cell Signaling, Cat. No: 9733), anti-BAF155 (Santa Cruz, Cat. No: sc-9746), anti-RNA polymerase II (Santa Cruz, Cat. No: sc-899) or anti-EZH2 (Cell Signaling, Cat. No: 5246). An isotype matched IgG was used as a negative control. ChIP DNA was analyzed by quantitative PCR against the promoter of the indicated genes using the following primers: DAB2 Forward: 5′-[…]-3′ (SEQ ID NO: 10) and DAB2 Reverse: 5′-[…]-3′ (SEQ ID NO: 11); DLC1 Forward: 5′-[…]-3′ (SEQ ID NO: 12) and DLC1 Reverse: 5′-[…]-3′ (SEQ ID NO: 13); NOXA Forward: 5′-[…]-3′ (SEQ ID NO: 14) and NOXA Reverse: 5′-[…]-3′ (SEQ ID NO: 15); TIMP3 Forward: 5′-[…]-3′ (SEQ ID NO: 16) and TIMP3 Reverse: 5′-[…]-3′ (SEQ ID NO: 17).
# T1 sequence (Q15910 whole entry): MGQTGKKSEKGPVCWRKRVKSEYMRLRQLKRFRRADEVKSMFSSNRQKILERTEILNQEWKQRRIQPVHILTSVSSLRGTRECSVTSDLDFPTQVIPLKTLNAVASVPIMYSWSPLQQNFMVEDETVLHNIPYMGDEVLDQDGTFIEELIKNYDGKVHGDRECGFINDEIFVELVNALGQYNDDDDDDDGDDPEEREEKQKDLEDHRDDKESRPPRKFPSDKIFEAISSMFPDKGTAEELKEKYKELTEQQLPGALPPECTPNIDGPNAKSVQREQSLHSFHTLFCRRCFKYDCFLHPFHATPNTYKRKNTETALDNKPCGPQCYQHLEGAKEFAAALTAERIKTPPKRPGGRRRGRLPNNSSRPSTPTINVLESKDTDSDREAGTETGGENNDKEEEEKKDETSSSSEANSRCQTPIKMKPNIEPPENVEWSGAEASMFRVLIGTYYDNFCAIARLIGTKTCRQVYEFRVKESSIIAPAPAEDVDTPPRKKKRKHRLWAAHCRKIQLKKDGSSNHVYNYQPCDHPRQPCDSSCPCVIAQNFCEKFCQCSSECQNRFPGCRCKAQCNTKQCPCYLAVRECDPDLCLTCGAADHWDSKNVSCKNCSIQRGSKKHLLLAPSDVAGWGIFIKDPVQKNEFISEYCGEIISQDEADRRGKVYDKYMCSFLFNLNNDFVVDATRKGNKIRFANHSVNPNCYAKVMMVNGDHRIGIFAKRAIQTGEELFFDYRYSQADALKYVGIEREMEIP
# T1 sequence (Q15022 whole entry partner): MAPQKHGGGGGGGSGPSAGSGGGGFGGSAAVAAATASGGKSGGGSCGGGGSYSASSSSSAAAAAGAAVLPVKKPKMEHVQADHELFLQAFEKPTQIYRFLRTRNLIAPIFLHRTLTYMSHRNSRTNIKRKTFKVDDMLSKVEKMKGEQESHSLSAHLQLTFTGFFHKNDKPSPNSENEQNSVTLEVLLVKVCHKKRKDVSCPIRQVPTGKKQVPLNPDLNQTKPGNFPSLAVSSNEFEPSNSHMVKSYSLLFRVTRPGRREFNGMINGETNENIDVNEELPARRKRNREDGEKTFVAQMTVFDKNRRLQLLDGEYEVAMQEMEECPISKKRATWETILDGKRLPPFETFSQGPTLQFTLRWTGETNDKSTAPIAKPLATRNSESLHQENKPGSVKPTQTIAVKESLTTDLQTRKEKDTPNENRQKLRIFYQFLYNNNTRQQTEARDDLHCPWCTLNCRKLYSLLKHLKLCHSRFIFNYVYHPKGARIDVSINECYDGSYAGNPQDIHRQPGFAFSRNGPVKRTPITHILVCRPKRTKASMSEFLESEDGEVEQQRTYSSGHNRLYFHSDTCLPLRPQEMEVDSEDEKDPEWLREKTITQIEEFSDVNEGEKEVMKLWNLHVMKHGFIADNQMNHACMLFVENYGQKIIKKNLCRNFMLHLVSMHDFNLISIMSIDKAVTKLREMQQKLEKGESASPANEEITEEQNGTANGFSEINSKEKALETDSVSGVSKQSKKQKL
# T1 sequence (O75530 whole entry partner): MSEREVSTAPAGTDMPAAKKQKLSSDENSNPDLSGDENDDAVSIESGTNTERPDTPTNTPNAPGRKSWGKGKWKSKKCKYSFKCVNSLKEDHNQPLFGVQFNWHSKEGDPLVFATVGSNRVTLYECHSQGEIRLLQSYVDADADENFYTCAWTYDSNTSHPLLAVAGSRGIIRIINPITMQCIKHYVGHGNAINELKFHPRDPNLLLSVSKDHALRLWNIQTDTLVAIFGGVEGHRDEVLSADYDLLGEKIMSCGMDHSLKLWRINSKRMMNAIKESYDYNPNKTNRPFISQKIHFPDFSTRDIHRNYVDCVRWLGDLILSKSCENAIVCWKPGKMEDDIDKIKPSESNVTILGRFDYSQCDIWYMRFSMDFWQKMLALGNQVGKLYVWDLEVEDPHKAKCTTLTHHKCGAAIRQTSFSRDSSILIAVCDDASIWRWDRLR
smiles,measurement,setting,value
"CC[C@H](C)n1cc(C)c2c(C(=O)NCc3c(C)cc(C)[nH]c3=O)cc(-c3ccc(N4CCNCC4)nc3)cc21 [GSK126, (S)-1-(sec-butyl)-N-((4,6-dimethyl-2-oxo-1,2-dihydropyridin-3-yl)methyl)-3-methyl-6-(6-(piperazin-1-yl)pyridin-3-yl)-1H-indole-4-carboxamide]",inhibition at 10 µM,[1],> 95%
same,expression of Ki67,[2]; IHC,did not affect the expression of Ki67 and cleaved caspase 3
same,expression of cleaved caspase 3,[2]; IHC,did not affect the expression of Ki67 and cleaved caspase 3
same,expression of EZH2/BAF155 target genes,[2]; qRT-PCR,did not increase the expression
same,relation of CARM1 expression level and cellular response,"[3]; 10 μM, panel of EOC cell lines",correlation between CARM1 expression levels and cellular response
same,IC50 values from response curves,"[3]; CARM1-expressing cell lines (A1847, OVCAR10, PEO4) versus panel of normal and ovarian cancer cell lines, values only in FIG. 8",Significantly reduced IC50 values
same,association of BAF155 and Pol II with the TIMP3 promoter,[4]; 10 μM,CARM1 KO but not EZH2 inhibitor GSK 126 treatment decreased the association
same,EZH2's association with its target genes,"[4]; DAB2, DLC1, NOXA loci",without affecting EZH2's association with its target genes
same,H3K27Me3 occupancy of target genes,"[4]; DAB2, DLC1, NOXA loci",decreased H3K27Me3 occupancy
